This is an account of results in patent publication US5242908A, “Use of benzylphosphonic acid derivatives for the treatment of diseases caused by viruses” (priority 1990, dated 1993).

Series [1] relates to Herpes simplex 1. The format is in vivo, NMRI mice. The conditions noted are these: for Survivors: groups of 5 mice. The method, then:
The treatment was performed twice daily, starting after the infection. The substances were administered to the experimental animals 5 or 9 times (see Table 1).
The chemotherapeutic action can be seen from Table 1.

Series [2] can be described thus: in vitro. The following applies: hela and vero cells.
[3] abbreviates: po 9 × 0 mg/kg (so in the source).

Where two headings read alike, the source gives them in different places.

For the molecule `COP(=O)(Cc1ccccc1C)OC` [A, dimethyl 2-methylbenzylphosphonate], the Average survival time in series [1] (po 5 × 2.5 mg/kg) turned out to be 10.5 days; in series [1] (po 5 × 25 mg/kg) it was 9.0 days; in series [1] (sc 5 × 2.5 mg/kg), 12.0 days; in series [1] (sc 5 × 25 mg/kg) it was 9.0 days; in series [1] (sc 5 × 250 mg/kg) it was 9.0 days. For the same molecule, the Survivors in series [1] (po 5 × 2.5 mg/kg) came out at 3; in series [1] (po 5 × 25 mg/kg) it was 3; in series [1] (sc 5 × 2.5 mg/kg), 2; in series [1] (sc 5 × 25 mg/kg) it was 4; in series [1] (sc 5 × 250 mg/kg) it was 4.

`CCOP(=O)(Cc1ccccc1Br)OCC` [C, diethyl 2-bromobenzylphosphonate]: the Average survival time in series [1] (po 5 × 2.5 mg/kg) was 6.7 days; in series [1] (po 5 × 25 mg/kg) it was 8.5 days; in series [1] (po 5 × 250 mg/kg), 8.0 days. Moreover, the Survivors in series [1] (po 5 × 2.5 mg/kg) worked out at 2; in series [1] (po 5 × 25 mg/kg), 3; in series [1] (po 5 × 250 mg/kg), 2.

On to `CCOP(=O)(Cc1ccc(Br)cc1)OCC` [D, diethyl 4-bromobenzylphosphonate], for which the Average survival time in series [1] (po 5 × 0.25 mg/kg) came out at 8.7 days; in series [1] (po 5 × 2.5 mg/kg) it was 7.0 days; in series [1] (po 5 × 25 mg/kg), 6.0 days; in series [1] (po 9 × 3 mg/kg), 8.0 days; in series [1] (po 9 × 10 mg/kg), 8.3 days; in series [1] (po 9 × 30 mg/kg), 10.5 days. Also, the Average survival time is 9.0 days in series [1] (sc 5 × 0.25 mg/kg), 8.5 days in series [1] (sc 5 × 2.5 mg/kg) and 8.0 days in series [1] (sc 5 × 25 mg/kg). Further, the Survivors is on record as 2 in series [1] (po 5 × 0.25 mg/kg); 2 in series [1] (po 5 × 2.5 mg/kg); 3 in series [1] (po 5 × 25 mg/kg); 4 in series [1] (po 9 × 3 mg/kg); 2 in series [1] (po 9 × 10 mg/kg); 3 in series [1] (po 9 × 30 mg/kg). The results for the Survivors in series [1] (sc 5 × 0.25 mg/kg), in series [1] (sc 5 × 2.5 mg/kg) and in series [1] (sc 5 × 25 mg/kg) were 1, 3 and 4, respectively.

As for `CCOP(=O)(Cc1ccccc1C)OCC` [E, diethyl 2-methylbenzylphosphonate], the Average survival time in series [1] (setting [3]) is 7.0 days; in series [1] (po 9 × 3 mg/kg), 5.7 days; in series [1] (po 9 × 30 mg/kg) it was 7.5 days; in series [1] (sc 9 × 3 mg/kg), 6.3 days; in series [1] (sc 9 × 10 mg/kg) it was 6.5 days; in series [1] (sc 9 × 30 mg/kg) it was 6.7 days. The Survivors in series [1] (setting [3]) stood at 2; in series [1] (po 9 × 3 mg/kg), 1; in series [1] (po 9 × 30 mg/kg), 3; in series [1] (sc 9 × 3 mg/kg) it was 1; in series [1] (sc 9 × 10 mg/kg) it was 3; in series [1] (sc 9 × 30 mg/kg), 2.

For `CCOP(=O)(Cc1cc(C)ccc1C)OCC` [K, diethyl 2,5-dimethylbenzylphosphonate], the Average survival time in series [1] (sc 5 × 2.5 mg/kg) is listed as 7.4 days; in series [1] (sc 5 × 25 mg/kg), 8.6 days; in series [1] (sc 5 × 250 mg/kg), 8.0 days. In addition, the Survivors in series [1] (sc 5 × 2.5 mg/kg) was 0; in series [1] (sc 5 × 25 mg/kg), 0; in series [1] (sc 5 × 250 mg/kg), 3.

With `Cc1ccccc1CP(=O)(OC(C)C)OC(C)C` [L, diisopropyl 2-methylbenzylphosphonate], the Survivors in series [1] (po 5 × 2.5 mg/kg) is listed as 5; in series [1] (po 5 × 25 mg/kg) it was 2; in series [1] (po 5 × 250 mg/kg), 2; in series [1] (sc 5 × 2.5 mg/kg), 1; in series [1] (sc 5 × 25 mg/kg), 0; in series [1] (sc 5 × 250 mg/kg) it was 3. The Average survival time in series [1] (po 5 × 25 mg/kg) is given as 8.7 days; in series [1] (po 5 × 250 mg/kg), 8.7 days; in series [1] (sc 5 × 2.5 mg/kg), 8.3 days; in series [1] (sc 5 × 25 mg/kg) it was 7.4 days; in series [1] (sc 5 × 250 mg/kg), 6.5 days.

Turning to `CCCCOP(=O)(Cc1ccccc1C)OCCCC` [M, di-n-butyl 2-methylbenzylphosphonate], the Average survival time is 7.0 days in series [1] (sc 5 × 2.5 mg/kg), 7.5 days in series [1] (sc 5 × 25 mg/kg) and 7.7 days in series [1] (sc 5 × 250 mg/kg). Besides, the Survivors in series [1] (sc 5 × 2.5 mg/kg) was 4; in series [1] (sc 5 × 25 mg/kg) it was 3; in series [1] (sc 5 × 250 mg/kg) it was 1.

For the molecule `Cc1ccccc1CP(=O)(O)O` [O, di-triethylammonium 2-methylbenzylphosphonate], the MNTC in series [2] amounted to 133 µg/mL.
